One compound from ChEMBL document CHEMBL2331362, “Identification of N-acyl 4-(5-pyrimidine-2,4-dionyl)phenylalanine derivatives and their orally active prodrug esters as dual-acting alpha4-beta1 and alpha4-beta7 receptor antagonists” (Bioorg Med Chem Lett, 2013) can be followed below.

Calls of active or inactive are those of the source. The calls are words filed in the database; no cut-off is given here.

Data set [1] concerns Mus musculus. Put plainly: AUC (0 to 24 hrs) in mouse assessed as (S)-2-(2,6-difluorobenzamido)-3-(4-(1,3,6-trimethyl-2,4-dioxo-1,2,3,4-tetrahydropyrimidin-5-yl)phenyl)propanoic acid level at 50 mg/kg, po. Type of data set: ADME, organism-based, Plasma. More on the design: time < 24 hr, dose 50 mg/kg, route oral. To be noted: in vivo.
In data set [2] the test system is Canis familiaris. Put plainly: Oral bioavailability in dog assessed as (S)-2-(2,6-difluorobenzamido)-3-(4-(1,3,6-trimethyl-2,4-dioxo-1,2,3,4-tetrahydropyrimidin-5-yl)phenyl)propanoic acid level at 50 mg/kg. Type of data set: ADME, organism-based, Canis lupus familiaris. The settings on record: in vivo.
Data set [3] concerns Rattus norvegicus. Put plainly: Tmax in rat assessed as (S)-2-(2,6-difluorobenzamido)-3-(4-(1,3,6-trimethyl-2,4-dioxo-1,2,3,4-tetrahydropyrimidin-5-yl)phenyl)propanoic acid level at 50 mg/kg, po. To be noted: in vivo. Format: ADME, organism-based. More on the design: dose 50 mg/kg, route oral.
The test system of data set [4] is Canis familiaris. Put plainly: AUC (0 to 24 hrs) in dog assessed as (S)-2-(2,6-difluorobenzamido)-3-(4-(1,3,6-trimethyl-2,4-dioxo-1,2,3,4-tetrahydropyrimidin-5-yl)phenyl)propanoic acid level at 50 mg/kg, po. Type of data set: ADME, organism-based, Canis lupus familiaris, Plasma. More on the design: time < 24 hr, dose 50 mg/kg, route oral. The settings on record: in vivo.

Data set [5] is described as follows: Distribution coefficient, log D of the compound. Format: physicochemical. To be noted: octanol/water.
For data set [6], the system named is Cynomolgus monkey. Put plainly: Cmax in cynomolgus monkey assessed as (S)-2-(2,6-difluorobenzamido)-3-(4-(1,3,6-trimethyl-2,4-dioxo-1,2,3,4-tetrahydropyrimidin-5-yl)phenyl)propanoic acid level at 30 mg/kg, po. Type of data set: ADME, organism-based, Macaca fascicularis. More on the design: dose 30 mg/kg, route oral. To be noted: in vivo.
The subject of data set [7] is Mus musculus. Put plainly: Oral bioavailability in mouse assessed as (S)-2-(2,6-difluorobenzamido)-3-(4-(1,3,6-trimethyl-2,4-dioxo-1,2,3,4-tetrahydropyrimidin-5-yl)phenyl)propanoic acid level at 50 mg/kg. Format: ADME, organism-based. The settings on record: in vivo.
The subject of data set [8] is Rattus norvegicus. Put plainly: Cmax in rat assessed as (S)-2-(2,6-difluorobenzamido)-3-(4-(1,3,6-trimethyl-2,4-dioxo-1,2,3,4-tetrahydropyrimidin-5-yl)phenyl)propanoic acid level at 50 mg/kg, po. Type of data set: ADME, organism-based. Details: dose 50 mg/kg, route oral. To be noted: in vivo.
In data set [9] the test system is Rattus norvegicus. Put plainly: AUC (0 to 24 hrs) in rat assessed as (S)-2-(2,6-difluorobenzamido)-3-(4-(1,3,6-trimethyl-2,4-dioxo-1,2,3,4-tetrahydropyrimidin-5-yl)phenyl)propanoic acid level at 50 mg/kg, po. Type of data set: ADME, organism-based, Plasma. Details: time < 24 hr, dose 50 mg/kg, route oral. To be noted: in vivo.
For data set [10], the system named is Mus musculus. Put plainly: Cmax in mouse assessed as (S)-2-(2,6-difluorobenzamido)-3-(4-(1,3,6-trimethyl-2,4-dioxo-1,2,3,4-tetrahydropyrimidin-5-yl)phenyl)propanoic acid level at 50 mg/kg, po. Details: dose 50 mg/kg, route oral. Format: ADME, organism-based. The settings on record: in vivo.
For data set [11], the system named is Cynomolgus monkey. Put plainly: Oral bioavailability in cynomolgus monkey assessed as (S)-2-(2,6-difluorobenzamido)-3-(4-(1,3,6-trimethyl-2,4-dioxo-1,2,3,4-tetrahydropyrimidin-5-yl)phenyl)propanoic acid level at 30 mg/kg. Format: ADME, organism-based, Macaca fascicularis. The settings on record: in vivo.
In data set [12] the test system is Cynomolgus monkey. Put plainly: Tmax in cynomolgus monkey assessed as (S)-2-(2,6-difluorobenzamido)-3-(4-(1,3,6-trimethyl-2,4-dioxo-1,2,3,4-tetrahydropyrimidin-5-yl)phenyl)propanoic acid level at 30 mg/kg, po. Format: ADME, organism-based, Macaca fascicularis. Details: dose 30 mg/kg, route oral. To be noted: in vivo.
Data set [13] relates to Canis familiaris. Put plainly: Tmax in dog assessed as (S)-2-(2,6-difluorobenzamido)-3-(4-(1,3,6-trimethyl-2,4-dioxo-1,2,3,4-tetrahydropyrimidin-5-yl)phenyl)propanoic acid level at 50 mg/kg, po. Type of data set: ADME, organism-based, Canis lupus familiaris. More on the design: dose 50 mg/kg, route oral. To be noted: in vivo.
Data set [14] relates to Cynomolgus monkey. Put plainly: Antiinflammatory activity in atopic cynomolgus monkey challenged with aerosolized Ascaris suum extract assessed as reduction in eosinophils influx into lungs at 1 and 30 mg/kg, po administered 4 hrs before antigen challenge measured 48 hrs after antigen challenge. Format: functional, organism-based. Details: dose 30 mg/kg. To be noted: Macaca fascicularis.

The subject of data set [15] is Canis familiaris. Put plainly: Cmax in dog assessed as (S)-2-(2,6-difluorobenzamido)-3-(4-(1,3,6-trimethyl-2,4-dioxo-1,2,3,4-tetrahydropyrimidin-5-yl)phenyl)propanoic acid level at 50 mg/kg, po. Format: ADME, organism-based, Canis lupus familiaris. Details: dose 50 mg/kg, route oral. To be noted: in vivo.
Data set [16] has as its system Rattus norvegicus. Put plainly: Oral bioavailability in rat assessed as (S)-2-(2,6-difluorobenzamido)-3-(4-(1,3,6-trimethyl-2,4-dioxo-1,2,3,4-tetrahydropyrimidin-5-yl)phenyl)propanoic acid level at 50 mg/kg. Type of data set: ADME, organism-based. To be noted: in vivo.
Data set [17] in a line: Apparent permeability across human Caco2 cells. Format: ADME, cell-based. To be noted: Caco-2. For orientation: Caco-2 cells form a polarised layer with tight junctions and transporters.
Data set [18] deals with Cynomolgus monkey. Put plainly: Antiinflammatory activity in atopic cynomolgus monkey challenged with aerosolized Ascaris suum extract assessed as reduction in lymphocytes influx into lungs at 1 and 30 mg/kg, po administered 4 hrs before antigen challenge measured 48 hrs after antigen challenge. The settings on record: Macaca fascicularis. Details: dose 30 mg/kg. Format: functional, organism-based.

Data set [19] can be described thus: Oral bioavailability in rat. Format: ADME, organism-based. The settings on record: in vivo.
Data set [20] concerns Cynomolgus monkey. Put plainly: Antiinflammatory activity in atopic cynomolgus monkey challenged with aerosolized Ascaris suum extract assessed as reduction in neutrophils influx into lungs at 1 and 30 mg/kg, po administered 4 hrs before antigen challenge measured 48 hrs after antigen challenge. Type of data set: functional, organism-based. More on the design: dose 30 mg/kg. The settings on record: Macaca fascicularis.

Data set [21] concerns Cynomolgus monkey. Put plainly: AUC (0 to 24 hrs) in cynomolgus monkey assessed as (S)-2-(2,6-difluorobenzamido)-3-(4-(1,3,6-trimethyl-2,4-dioxo-1,2,3,4-tetrahydropyrimidin-5-yl)phenyl)propanoic acid level at 30 mg/kg, po. Details: time < 24 hr, dose 30 mg/kg, route oral. Type of data set: ADME, organism-based, Macaca fascicularis, Plasma. The settings on record: in vivo.

Data set [22] relates to Mus musculus. Put plainly: Tmax in mouse assessed as (S)-2-(2,6-difluorobenzamido)-3-(4-(1,3,6-trimethyl-2,4-dioxo-1,2,3,4-tetrahydropyrimidin-5-yl)phenyl)propanoic acid level at 50 mg/kg, po. The settings on record: in vivo. Type of data set: ADME, organism-based. More on the design: dose 50 mg/kg, route oral.

For the compound `CCOC(=O)[C@H](Cc1ccc(-c2c(C)n(C)c(=O)n(C)c2=O)cc1)NC(=O)c1c(F)cccc1F`, the exposure (AUC) in data set [1] was found to be 8547 ng·h/mL; in data set [4] it was 1690 ng·h/mL; in data set [9] it was 18097 ng·h/mL; in data set [21], 3146 ng·h/mL. The F in data set [2] turned out to be 6%; in data set [7], 22%; in data set [11], 7%; in data set [16], 9%. For the same compound, the time of peak concentration (Tmax) was 1.3 h in data set [3], 2 h in data set [12], 1 h in data set [13] and 0.25 h in [22]. In data set [5], this compound displayed a logD of 1.73. The Cmax turned out to be 337 ng/mL in [6], 5287 ng/mL in data set [8], 2988 ng/mL in [10] and 471 ng/mL in [15]. For the same compound, the outcome in data set [14], in [18] and in data set [20] was Active. Further, the Papp in data set [17] came out at 26.9 ×10⁻⁶ cm/s. Besides, the bioavailability in data set [19] was determined as 9%.

The term AUC denotes concentration integrated over time. The term Tmax denotes the time from dosing to the highest level. A word on the logD: it is lipophilicity at a set pH, counting ionised and neutral species. The Cmax is the highest concentration seen after dosing. A word on the Papp: it is the rate of passage across a membrane or cell layer, normalised by area and donor concentration. For orientation: bioavailability means the share of a dose that reaches the circulation, judged against a reference dose that is usually intravenous.
